The results in this text go back to US10336762B2 (priority 2017, dated 2019).

For orientation: IC50 means the concentration that gives 50% inhibition. A low value points to higher potency. As usually defined, the EC50 is the concentration at which the effect is half-maximal.

Molecules are shown by their SMILES. Where only a bound is given, the exact number is not on record here.

Assay [1] has as its target IRAK4 enzyme (Homo sapiens (Human), UniProt Q9NWZ3). The assay can be described thus: biochemical. In kind it is biochemical. Particulars: IRAK4 enzyme, TR-FRET, 500 μM ATP. In general terms: Time-resolved FRET reads energy transfer from a long-lived donor to a nearby acceptor.
For assay [2], the system named is TNFα. The assay can be described thus: cells. The format is cell-based, human. Particulars: Homo sapiens, Monocyte, LPS-stimulated human monocytes, TNFα content; read-out: EC50 TNF.

Chain of IRAK4 enzyme (Q9NWZ3 whole entry): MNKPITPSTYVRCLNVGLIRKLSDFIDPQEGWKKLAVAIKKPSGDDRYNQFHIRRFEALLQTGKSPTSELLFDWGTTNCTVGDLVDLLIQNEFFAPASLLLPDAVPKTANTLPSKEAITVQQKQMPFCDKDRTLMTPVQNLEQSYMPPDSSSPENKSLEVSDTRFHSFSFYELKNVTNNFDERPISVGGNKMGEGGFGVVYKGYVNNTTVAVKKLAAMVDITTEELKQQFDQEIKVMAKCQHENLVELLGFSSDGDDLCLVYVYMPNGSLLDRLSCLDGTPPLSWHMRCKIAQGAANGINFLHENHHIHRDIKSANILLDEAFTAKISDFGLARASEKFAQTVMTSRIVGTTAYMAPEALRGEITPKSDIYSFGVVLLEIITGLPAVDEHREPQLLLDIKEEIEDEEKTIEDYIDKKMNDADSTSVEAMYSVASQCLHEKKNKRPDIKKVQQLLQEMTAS

Regarding `CN1CC2C[C@@H](Nc3cc(-c4ccc5cc(C#N)cnn45)ncc3C(=O)NC[C@@H](F)C(C)(C)O)C[C@@H]2C1` (stereo partly drawn) [Example 245, 6-(3-cyanopyrrolo[1,2-b]pyridazin-7-yl)-N-((R)-2-fluoro-3-hydroxy-3-methylbutyl)-4-(((3aR,5s,6aS)-2-methyloctahydrocyclopenta[c]pyrrol-5-yl)amino)nicotinamide], it took 2 nM to reach half-maximal inhibition in assay [1] (IC50). In assay [2], the EC50 stood at 92 nM.

In turn, `CC(=O)N1C[C@H]2C[C@@H](Nc3cc(-c4ccc5cc(C#N)cnn45)ncc3C(=O)NC[C@@H](F)C(C)(C)O)C[C@H]2C1` [Example 246, 4-(((3aR,5r,6aS)-2-acetyl-octahydrocyclopenta[c]pyrrol-5-yl)amino)-6-(3-cyanopyrrolo[1,2-b]pyridazin-7-yl)-N-((R)-2-fluoro-3-hydroxy-3-methylbutyl)nicotinamide] returned an IC50 in assay [1] of 17 nM. Also, in assay [2], the half-maximal effective concentration (EC50) came out at 637 nM.

On to `CC(C)(O)[C@H](F)CNC(=O)c1cnc(-c2ccc3cc(C#N)cnn23)cc1N[C@@H]1C[C@@H]2CN(S(C)(=O)=O)C[C@@H]2C1` [Example 247, 6-(3-cyanopyrrolo[1,2-b]pyridazin-7-yl)-N-((R)-2-fluoro-3-hydroxy-3-methylbutyl)-4-(((3aR,5r,6aS)-2-(methylsulfonyl)octahydro-cyclopenta[c]pyrrol-5-yl)amino)nicotinamide], for which, in assay [1], the IC50 was found to be 6 nM. For the same molecule, the EC50 in assay [2] stood at 262 nM.

`CC(C)(O)[C@H](F)CNC(=O)c1cnc(-c2ccc3cc(C#N)cnn23)cc1N[C@H]1C[C@H]2CNC[C@H]2C1` [Example 248, 6-(3-cyanopyrrolo[1,2-b]pyridazin-7-yl)-N-((R)-2-fluoro-3-hydroxy-3-methyl-butyl)-4-(((3aR,5r,6aS)-octahydrocyclopenta[c]pyrrol-5-yl)amino) nicotinamide]: in assay [1], the midpoint of inhibition, the IC50, lay at 3 nM. For the same molecule, the half-maximal effective concentration (EC50) in assay [2] was determined as 545 nM.

With `CC(=O)N1C[C@H]2C[C@H](Nc3cc(-c4ccc5cc(C#N)cnn45)ncc3C(=O)NC[C@@H](F)C(C)(C)O)C[C@H]2C1` [Example 249, 4-(((3aR,5s,6aS)-2-acetyl-octahydrocyclopenta[c]pyrrol-5-yl)amino)-6-(3-cyanopyrrolo[1,2-b]pyridazin-7-yl)-N-((R)-2-fluoro-3-hydroxy-3-methylbutyl) nicotinamide], the 50% inhibitory concentration (IC50) in assay [1] was determined as 2 nM. Besides, in assay [2], the concentration for a half-maximal effect (EC50) was found to be 100 nM.

On to `CC(C)(O)[C@H](F)CNC(=O)c1cnc(-c2ccc3cc(C#N)cnn23)cc1N[C@H]1C[C@@H]2CN(S(C)(=O)=O)C[C@@H]2C1` [Example 250, 6-(3-cyanopyrrolo[1,2-b]pyridazin-7-yl)-N-((R)-2-fluoro-3-hydroxy-3-methylbutyl)-4-(((3aR,5s,6aS)-2-(methylsulfonyl)octa-hydrocyclopenta[c]pyrrol-5-yl)amino) nicotinamide], for which the half-maximal inhibitory concentration (IC50) in assay [1] was found to be 1 nM. For the same molecule, the concentration for a half-maximal effect (EC50) in assay [2] turned out to be 37 nM.

The molecule `CC(C)(O)[C@H](F)CNC(=O)c1cnc(-c2ccc3cc(C#N)cnn23)cc1N[C@@H]1C[C@H]2CNC[C@H]2C1` [Example 251, 6-(3-cyanopyrrolo[1,2-b]pyridazin-7-yl)-N-((R)-2-fluoro-3-hydroxy-3-methylbutyl)-4-(((3aR,5s,6aS)-octa-hydrocyclopenta[c]pyrrol-5-yl)amino) nicotinamide] showed a half-maximal inhibitory concentration (IC50) in assay [1] of 1 nM. For the same molecule, the EC50 in assay [2] came to 117 nM.

Consider `CC(C)Nc1cc(-c2ccc3cc(C#N)cnn23)ncc1C(=O)NCCC(C)(C)N` [Example 252, N-(3-amino-3-methyl-butyl)-6-(3-cyano-pyrrolo[1,2-b]pyridazin-7-yl)-4-(isopropylamino) nicotinamide], for which the IC50 in assay [1] amounted to 2 nM. In assay [2], the EC50 worked out at 78 nM.

Molecule `CC(=O)N1CCC[C@@H](Nc2cc(-c3ccc4cc(C#N)cnn34)ncc2C(=O)NC[C@@H](F)C(C)(C)O)C1` [Example 253, 4-(((R)-1-acetylpiperidin-3-yl)amino)-6-(3-cyano-pyrrolo[1,2-b]pyridazin-7-yl)-N-((R)-2-fluoro-3-hydroxy-3-methylbutyl)nicotinamide] registered a half-inhibitory concentration (IC50) in assay [1] of 3 nM. Also, the EC50 in assay [2] worked out at 510 nM.

`CC(C)(O)[C@H](F)CNC(=O)c1cnc(-c2ccc3cc(C#N)cnn23)cc1N[C@@H]1CCCN(S(C)(=O)=O)C1` [Example 254, 6-(3-cyanopyrrolo[1,2-b]pyridazin-7-yl)-N-((R)-2-fluoro-3-hydroxy-3-methylbutyl)-4-(((R)-1-(methylsulfonyl)piperidin-3-yl)amino)nicotinamide] had an IC50 in assay [1] of 17 nM. Besides, the EC50 in assay [2] turned out to be 2020 nM.

Turning to `CC(C)(O)[C@H](F)CNC(=O)c1cnc(-c2ccc3cc(C#N)cnn23)cc1N[C@@H]1CCCNC1` [Example 255, 6-(3-cyanopyrrolo[1,2-b]pyridazin-7-yl)-N-((R)-2-fluoro-3-hydroxy-3-methylbutyl)-4-(((R)-piperidin-3-yl)amino)nicotinamide], the IC50 in assay [1] was determined as 14 nM. In addition, the 50% effective concentration (EC50) in assay [2] amounted to 1270 nM.

In assay [1], `CC(=O)N1CCC[C@H](Nc2cc(-c3ccc4cc(C#N)cnn34)ncc2C(=O)NC[C@@H](F)C(C)(C)O)C1` [Example 256, 4-(((S)-1-acetylpiperidin-3-yl)amino)-6-(3-cyano-pyrrolo[1,2-b]pyridazin-7-yl)-N-((R)-2-fluoro-3-hydroxy-3-methylbutyl)nicotinamide] registered an IC50 of 2 nM. Also, the concentration for a half-maximal effect (EC50) in assay [2] was determined as 389 nM.

As for `CC(C)(O)[C@H](F)CNC(=O)c1cnc(-c2ccc3cc(C#N)cnn23)cc1N[C@H]1CCCN(S(C)(=O)=O)C1` [Example 257, 6-(3-cyanopyrrolo[1,2-b]pyridazin-7-yl)-N-((R)-2-fluoro-3-hydroxy-3-methylbutyl)-4-(((S)-1-(methylsulfonyl)piperidin-3-yl)amino)nicotinamide], the half-maximal inhibitory concentration (IC50) in assay [1] is 1 nM. Besides, the EC50 in assay [2] amounted to 129 nM.

As to `CC(C)(O)[C@H](F)CNC(=O)c1cnc(-c2ccc3cc(C#N)cnn23)cc1N[C@H]1CCCNC1` [Example 258, 6-(3-cyanopyrrolo[1,2-b]pyridazin-7-yl)-N-((R)-2-fluoro-3-hydroxy-3-methylbutyl)-4-(((S)-piperidin-3-yl)amino)nicotinamide], the IC50 in assay [1] was 1 nM. Moreover, the EC50 in assay [2] is 83 nM.

Regarding `CN1CCC[C@@H](Nc2cc(-c3ccc4cc(C#N)cnn34)ncc2C(=O)NC[C@@H](F)C(C)(C)O)C1` [Example 259, 6-(3-cyanopyrrolo[1,2-b]pyridazin-7-yl)-N-((R)-2-fluoro-3-hydroxy-3-methylbutyl)-4-(((R)-1-methylpiperidin-3-yl)amino)nicotinamide], in assay [1], 6 nM corresponded to half-maximal inhibition (IC50). For the same molecule, the EC50 in assay [2] came to 152 nM.

In assay [1], `CN1CCC[C@H](Nc2cc(-c3ccc4cc(C#N)cnn34)ncc2C(=O)NC[C@@H](F)C(C)(C)O)C1` [Example 260, 6-(3-cyanopyrrolo[1,2-b]pyridazin-7-yl)-N-((R)-2-fluoro-3-hydroxy-3-methylbutyl)-4-(((S)-1-methylpiperidin-3-yl)amino)nicotinamide] had an IC50 of 8 nM. Besides, in assay [2], the 50% effective concentration (EC50) turned out to be 165 nM.

In assay [1], `CC(C)(O)[C@H](F)CNC(=O)c1cnc(-c2ccc3cc(C#N)cnn23)cc1N[C@H]1CCC[C@H]1O` [Example 261, 6-(3-cyanopyrrolo[1,2-b]pyridazin-7-yl)-N-((R)-2-fluoro-3-hydroxy-3-methylbutyl)-4-(((1S,2R)-2-hydroxycyclopentyl)amino)nicotinamide] yielded an IC50 of less than 1 nM. Further, the concentration for a half-maximal effect (EC50) in assay [2] came out at 41 nM.

`CC(C)(O)[C@H](F)CNC(=O)c1cnc(-c2ccc3cc(C#N)cnn23)cc1N[C@H]1CCC[C@@H]1O` [Example 262, 6-(3-cyanopyrrolo[1,2-b]pyridazin-7-yl)-N-((R)-2-fluoro-3-hydroxy-3-methylbutyl)-4-(((1S,2S)-2-hydroxycyclopentyl)amino)nicotinamide] showed an IC50 in assay [1] of less than 1 nM. Also, in assay [2], the concentration for a half-maximal effect (EC50) amounted to 21 nM.

In the case of `CC(C)(O)[C@H](F)CNC(=O)c1cnc(-c2ccc3cc(C#N)cnn23)cc1N[C@@H]1CN2CCC1CC2` [Example 263, 6-(3-cyanopyrrolo[1,2-b]pyridazin-7-yl)-N-((R)-2-fluoro-3-hydroxy-3-methylbutyl)-4-(((S)-quinuclidin-3-yl)amino)nicotinamide], 3 nM corresponded to half-maximal inhibition in assay [1] (IC50). In addition, in assay [2], the EC50 is 193 nM.

Take `CC(C)(O)[C@H](F)CNC(=O)c1cnc(-c2ccc3cc(C#N)cnn23)cc1NC1CCC2(CCC(=O)N2)CC1` (stereo partly drawn) [Example 265, 6-(3-cyanopyrrolo[1,2-b]pyridazin-7-yl)-N-((R)-2-fluoro-3-hydroxy-3-methylbutyl)-4-(((5S,8s)-2-oxo-1-azaspiro[4.5]decan-8-yl)amino) nicotinamide]: the IC50 in assay [1] was 2 nM. Also, the 50% effective concentration (EC50) in assay [2] came to 690 nM.

Molecule `CC(C)(O)[C@H](F)CNC(=O)c1cnc(-c2ccc3cc(C#N)cnn23)cc1N[C@H]1CN2CCC1CC2` [Example 266, 6-(3-cyanopyrrolo[1,2-b]pyridazin-7-yl)-N-((R)-2-fluoro-3-hydroxy-3-methylbutyl)-4-(((R)-quinuclidin-3-yl)amino)nicotinamide] showed a half-maximal inhibitory concentration (IC50) in assay [1] of 131 nM. For the same molecule, the EC50 in assay [2] amounted to 7590 nM.

As to `COC(=O)NC12CCC(Nc3cc(-c4ccc5cc(C#N)cnn45)ncc3C(=O)NCC#N)(CC1)CC2` [Example 267, methyl (4-((5-((cyanomethyl)carbamoyl)-2-(3-cyanopyrrolo[1,2-b]pyridazin-7-yl)pyridin-4-yl)amino)bicyclo[2.2.2]octan-1-yl)carbamate], the IC50 in assay [1] is less than 1 nM. For the same molecule, the EC50 in assay [2] came out at 19 nM.

In assay [1], `COC(=O)N[C@H]1CC[C@H](Nc2cc(-c3ccc4cc(C#N)cnn34)ncc2C(=O)NCC#N)CC1` [Example 268, Methyl ((1R,4R)-4-((5-((cyanomethyl)carbamoyl)-2-(3-cyanopyrrolo[1,2-b]pyridazin-7-yl)pyridin-4-yl)amino)cyclohexyl)carbamate] had a concentration for half-maximal inhibition (IC50) of less than 1 nM. Besides, the EC50 in assay [2] came to 29 nM.

Turning to `Cc1nnc(N[C@H]2CC[C@H](Nc3cc(-c4ccc5cc(C#N)cnn45)ncc3C(=O)NC[C@@H](F)C(C)(C)O)CC2)o1` [Example 269, 6-(3-cyanopyrrolo[1,2-b]pyridazin-7-yl)-N-((R)-2-fluoro-3-hydroxy-3-methylbutyl)-4-(((1R,4R)-4-((5-methyl-1,3,4-oxadiazol-2-yl)amino)cyclohexyl)amino)nicotinamide], the IC50 in assay [1] came to 1 nM. In addition, the EC50 in assay [2] is 59 nM.
